PubChem BioAssay (NCI)
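Five compound concentrations were applied to cells in 96-well plates for 48 hours; endpoints were derived by simple linear interpolation of the resulting dose-response curve. TGI denotes the concentration required for complete inhibition of growth.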

Tests used:
Assay in all cases: growth of human tumour cells (NCI), 48 h
NCI/ADR-RES ovarian = system: NCI/ADR-RES ovarian
SNB-75 CNS = system: SNB-75 CNS
HCT-116 colon = system: HCT-116 colon
COLO 205 colon = system: COLO 205 colon
LOX IMVI melanoma = system: LOX IMVI melanoma
HT29 colon = system: HT29 colon
MOLT-4 leukemia = system: MOLT-4 leukemia
M14 melanoma = system: M14 melanoma
SF-539 CNS = system: SF-539 CNS
NCI-H522 lung = system: NCI-H522 lung
U251 CNS = system: U251 CNS
OVCAR-8 ovarian = system: OVCAR-8 ovarian
SK-MEL-28 melanoma = system: SK-MEL-28 melanoma
NCI-H460 lung = system: NCI-H460 lung
OVCAR-4 ovarian = system: OVCAR-4 ovarian
RXF 393 renal = system: RXF 393 renal
EKVX NSCLC = system: EKVX NSCLC
KM12 colon = system: KM12 colon
HS 578T breast = system: HS 578T breast
NCI-H23 lung = system: NCI-H23 lung
SN12C renal = system: SN12C renal
OVCAR-3 ovarian = system: OVCAR-3 ovarian
UACC-62 melanoma = system: UACC-62 melanoma
OVCAR-5 ovarian = system: OVCAR-5 ovarian
SF-268 CNS = system: SF-268 CNS
BT-549 breast = system: BT-549 breast
RPMI-8226 leukemia = system: RPMI-8226 leukemia
SW-620 colon = system: SW-620 colon
SF-295 CNS = system: SF-295 CNS
786-0 renal = system: 786-0 renal
CAKI-1 renal = system: CAKI-1 renal
MCF7 breast = system: MCF7 breast
UO-31 renal = system: UO-31 renal
PC-3 prostate = system: PC-3 prostate
T-47D breast = system: T-47D breast
HOP-92 NSCLC = system: HOP-92 NSCLC
MALME-3M melanoma = system: MALME-3M melanoma
HOP-62 NSCLC = system: HOP-62 NSCLC
ACHN renal = system: ACHN renal
SK-MEL-5 melanoma = system: SK-MEL-5 melanoma
IGROV1 ovarian = system: IGROV1 ovarian
MDA-MB-231 breast = system: MDA-MB-231 breast
MDA-MB-435 = system: MDA-MB-435
DU-145 prostate = system: DU-145 prostate
HCT-15 colon = system: HCT-15 colon
A549 NSCLC = system: A549 NSCLC
CCRF-CEM leukemia = system: CCRF-CEM leukemia
A498 renal = system: A498 renal
SK-MEL-2 melanoma = system: SK-MEL-2 melanoma
SNB-19 CNS = system: SNB-19 CNS
NCI-H226 lung = system: NCI-H226 lung
SK-OV-3 ovarian = system: SK-OV-3 ovarian
TK-10 renal = system: TK-10 renal
UACC-257 melanoma = system: UACC-257 melanoma
SR leukemia = system: SR leukemia
HCC-2998 colon = system: HCC-2998 colon
K-562 leukemia = system: K-562 leukemia

With `O=C(O)c1cccc(/C=C/c2ccccc2)c1` the TGI (NCI/ADR-RES ovarian) was greater than 100 µM, the TGI (SNB-75 CNS) was greater than 100 µM and the TGI (HCT-116 colon) was greater than 100 µM. For the same compound, the TGI (COLO 205 colon) was greater than 100 µM, the TGI (LOX IMVI melanoma) was greater than 100 µM and the TGI (HT29 colon) was greater than 100 µM. It also gave a TGI (MOLT-4 leukemia) greater than 100 µM, a TGI (M14 melanoma) greater than 100 µM and a TGI (SF-539 CNS) greater than 100 µM. For the same compound, the TGI (NCI-H522 lung) was greater than 100 µM, the TGI (U251 CNS) was greater than 100 µM and the TGI (OVCAR-8 ovarian) was greater than 100 µM. The TGI (SK-MEL-28 melanoma) was greater than 100 µM, the TGI (NCI-H460 lung) was greater than 100 µM and the TGI (OVCAR-4 ovarian) was greater than 100 µM. The TGI (RXF 393 renal) was greater than 100 µM, the TGI (EKVX NSCLC) was greater than 100 µM and the TGI (KM12 colon) was greater than 100 µM. It also gave a TGI (HS 578T breast) greater than 100 µM, a TGI (NCI-H23 lung) greater than 100 µM and a TGI (SN12C renal) greater than 100 µM. It also gave a TGI (OVCAR-3 ovarian) greater than 100 µM, a TGI (UACC-62 melanoma) greater than 100 µM and a TGI (OVCAR-5 ovarian) greater than 100 µM. The TGI (SF-268 CNS) was greater than 100 µM, the TGI (BT-549 breast) was greater than 100 µM and the TGI (RPMI-8226 leukemia) was greater than 100 µM. For the same compound, the TGI (SW-620 colon) was greater than 100 µM, the TGI (SF-295 CNS) was greater than 100 µM and the TGI (786-0 renal) was greater than 100 µM. The TGI (CAKI-1 renal) was greater than 100 µM, the TGI (MCF7 breast) was greater than 100 µM and the TGI (UO-31 renal) was greater than 100 µM. For the same compound, the TGI (PC-3 prostate) was greater than 100 µM, the TGI (T-47D breast) was greater than 100 µM and the TGI (HOP-92 NSCLC) was greater than 100 µM. It also gave a TGI (MALME-3M melanoma) greater than 100 µM, a TGI (HOP-62 NSCLC) greater than 100 µM and a TGI (ACHN renal) greater than 100 µM. It also gave a TGI (SK-MEL-5 melanoma) greater than 100 µM, a TGI (IGROV1 ovarian) greater than 100 µM and a TGI (MDA-MB-231 breast) greater than 100 µM. For the same compound, the TGI (MDA-MB-435) was greater than 100 µM, the TGI (DU-145 prostate) was greater than 100 µM and the TGI (HCT-15 colon) was greater than 100 µM. The TGI (A549 NSCLC) was greater than 100 µM, the TGI (CCRF-CEM leukemia) was greater than 100 µM and the TGI (A498 renal) was greater than 100 µM. It also gave a TGI (SK-MEL-2 melanoma) greater than 100 µM, a TGI (SNB-19 CNS) greater than 100 µM and a TGI (NCI-H226 lung) greater than 100 µM. It also gave a TGI (SK-OV-3 ovarian) greater than 100 µM, a TGI (TK-10 renal) greater than 100 µM and a TGI (UACC-257 melanoma) greater than 100 µM.

`NC(=S)N/N=C1\CCCC1C(O)(C(F)(F)Cl)C(F)(F)Cl` (stereo not given) gave a TGI (NCI/ADR-RES ovarian) greater than 10 µM, a TGI (SNB-75 CNS) greater than 10 µM and a TGI (HCT-116 colon) greater than 10 µM. It also gave a TGI (COLO 205 colon) greater than 10 µM, a TGI (LOX IMVI melanoma) greater than 10 µM and a TGI (HT29 colon) greater than 10 µM. The TGI (MOLT-4 leukemia) was greater than 10 µM, the TGI (M14 melanoma) was greater than 10 µM and the TGI (SF-539 CNS) was greater than 10 µM. For the same compound, the TGI (NCI-H522 lung) was greater than 10 µM, the TGI (U251 CNS) was greater than 10 µM and the TGI (SR leukemia) was greater than 10 µM. The TGI (OVCAR-8 ovarian) was greater than 10 µM, the TGI (SK-MEL-28 melanoma) was greater than 10 µM and the TGI (NCI-H460 lung) was greater than 10 µM. It also gave a TGI (OVCAR-4 ovarian) greater than 10 µM, a TGI (RXF 393 renal) greater than 10 µM and a TGI (EKVX NSCLC) greater than 10 µM. It also gave a TGI (KM12 colon) greater than 10 µM, a TGI (HS 578T breast) greater than 10 µM and a TGI (NCI-H23 lung) greater than 10 µM. It also gave a TGI (SN12C renal) greater than 10 µM, a TGI (OVCAR-3 ovarian) greater than 10 µM and a TGI (UACC-62 melanoma) greater than 10 µM. For the same compound, the TGI (OVCAR-5 ovarian) was greater than 10 µM, the TGI (SF-268 CNS) was greater than 10 µM and the TGI (BT-549 breast) was greater than 10 µM. For the same compound, the TGI (RPMI-8226 leukemia) was greater than 10 µM, the TGI (SW-620 colon) was greater than 10 µM and the TGI (SF-295 CNS) was greater than 10 µM. The TGI (786-0 renal) was greater than 10 µM, the TGI (CAKI-1 renal) was greater than 10 µM and the TGI (MCF7 breast) was greater than 10 µM. The TGI (PC-3 prostate) was greater than 10 µM, the TGI (T-47D breast) was greater than 10 µM and the TGI (HOP-92 NSCLC) was greater than 10 µM. The TGI (MALME-3M melanoma) was greater than 10 µM, the TGI (HOP-62 NSCLC) was greater than 10 µM and the TGI (ACHN renal) was greater than 10 µM. For the same compound, the TGI (SK-MEL-5 melanoma) was 7.44 µM, the TGI (IGROV1 ovarian) was greater than 10 µM and the TGI (MDA-MB-231 breast) was greater than 10 µM. It also gave a TGI (MDA-MB-435) greater than 10 µM, a TGI (DU-145 prostate) greater than 10 µM and a TGI (HCT-15 colon) greater than 10 µM. It also gave a TGI (A549 NSCLC) greater than 10 µM, a TGI (CCRF-CEM leukemia) greater than 10 µM and a TGI (A498 renal) greater than 10 µM. It also gave a TGI (SK-MEL-2 melanoma) greater than 10 µM, a TGI (SNB-19 CNS) greater than 10 µM and a TGI (HCC-2998 colon) greater than 10 µM. For the same compound, the TGI (NCI-H226 lung) was greater than 10 µM, the TGI (K-562 leukemia) was greater than 10 µM and the TGI (SK-OV-3 ovarian) was greater than 10 µM. The TGI (TK-10 renal) was greater than 10 µM and the TGI (UACC-257 melanoma) was greater than 10 µM.
